Results reported in ChEMBL document CHEMBL1135110, “Structure-based design of peptidomimetic antagonists of p56(lck) SH2 domain” (Bioorg Med Chem Lett, 2002).
Non-standard residues stand in square brackets, D forms with d. Residues, ends and D or L forms follow the SMILES beside them. pY = N[C@@H](Cc1ccc(OP(=O)(O)O)cc1)C(=O)O

Biological target: Tyrosine-protein kinase Lck (Homo sapiens, UniProt P06239)
Assay: Inhibitory activity towards p56 Lck tyrosine kinase SH2 domain using scintillation proximity assay (SPA)

Chain of Tyrosine-protein kinase Lck (P06239 whole entry, the tested form may be a part): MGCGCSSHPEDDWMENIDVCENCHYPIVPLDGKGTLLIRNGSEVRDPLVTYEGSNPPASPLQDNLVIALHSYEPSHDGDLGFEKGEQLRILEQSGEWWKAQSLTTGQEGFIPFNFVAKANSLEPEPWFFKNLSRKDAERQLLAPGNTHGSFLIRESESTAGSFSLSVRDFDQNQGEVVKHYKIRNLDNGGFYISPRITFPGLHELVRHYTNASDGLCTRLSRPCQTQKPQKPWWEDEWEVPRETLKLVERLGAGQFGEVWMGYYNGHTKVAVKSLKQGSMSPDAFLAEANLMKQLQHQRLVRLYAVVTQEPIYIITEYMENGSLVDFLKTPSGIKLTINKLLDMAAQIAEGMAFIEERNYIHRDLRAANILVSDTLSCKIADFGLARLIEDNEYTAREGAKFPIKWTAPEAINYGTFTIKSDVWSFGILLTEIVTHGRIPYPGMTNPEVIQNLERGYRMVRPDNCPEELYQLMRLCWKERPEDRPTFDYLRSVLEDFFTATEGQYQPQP

SMILES | IC50
CC[C@H](C)[C@H](NC(=O)[C@H](CCC(=O)O)NC(=O)[C@H](CCC(=O)O)NC(=O)[C@H](Cc1ccc(OP(=O)(O)O)cc1)NC(C)=O)C(=O)NC | 2000 nM
CC(=O)N[C@@H](Cc1ccc(OP(=O)(O)O)cc1)C(=O)N[C@H]1CCC(=O)N2CCC[C@@H](C(=O)NCC(C)(C)C)N2C1=O | 1800 nM
CC(=O)N[C@@H](Cc1ccc(OP(=O)(O)O)cc1)C(=O)N[C@H]1CCC(=O)N2CCC[C@@H](C(=O)NC3CC(C(=O)O)c4ccccc43)N2C1=O (stereo in doubt; 35) | 7300 nM
CNC(=O)[C@H](CCC(=O)O)NC(=O)[C@H](Cc1ccc(OP(=O)(O)O)cc1)NC(C)=O (Ac-[pY]-Glu-NHMe) | 350000 nM
CC(=O)N[C@@H](Cc1ccc(OP(=O)(O)O)cc1)C(=O)N[C@H]1CCC(=O)N2CCC[C@@H](C(=O)NC3CCc4ccccc43)N2C1=O (stereo partly specified) | 1200 nM
CC(=O)N[C@@H](Cc1ccc(OP(=O)(O)O)cc1)C(=O)N[C@H]1CCC(=O)N2CCC[C@@H](C(=O)NCC3CCCCC3)N2C1=O | 1600 nM
CC(=O)N[C@@H](Cc1ccc(OP(=O)(O)O)cc1)C(=O)N[C@H]1CCC(=O)N2CCC[C@@H](C(=O)NCc3ccc(O)cc3)N2C1=O | 10000 nM
CC(=O)N[C@@H](Cc1ccc(OP(=O)(O)O)cc1)C(=O)N[C@H]1CCC(=O)N2CCC[C@@H](C(=O)N[C@@H]3C[C@@H](C(=O)O)c4ccccc43)N2C1=O | 100 nM
CC(=O)N[C@@H](Cc1ccc(OP(=O)(O)O)cc1)C(=O)N[C@H]1CCC(=O)N2CCC[C@@H](C(=O)NCc3ccccc3)N2C1=O | 1500 nM
CCCCNC(=O)[C@@H]1CCCN2C(=O)CC[C@H](NC(=O)[C@H](Cc3ccc(OP(=O)(O)O)cc3)NC(C)=O)C(=O)N12 | 1900 nM
CC[C@@H](C)CNC(=O)[C@@H]1CCCN2C(=O)CC[C@H](NC(=O)[C@H](Cc3ccc(OP(=O)(O)O)cc3)NC(C)=O)C(=O)N12 | 1200 nM
CC(=O)N[C@@H](Cc1ccc(OP(=O)(O)O)cc1)C(=O)N[C@H]1CCC(=O)N2CCC[C@@H](C(=O)N[C@H]3C[C@@H](C(=O)O)c4ccccc43)N2C1=O | 2800 nM
CNC(=O)[C@H](CCC(=O)O)NC(=O)[C@H](CCC(=O)O)NC(=O)[C@H](Cc1ccc(OP(=O)(O)O)cc1)NC(C)=O (Ac-[pY]-Glu-Glu-NHMe) | 17000 nM
CCCCCNC(=O)[C@@H]1CCCN2C(=O)CC[C@H](NC(=O)[C@H](Cc3ccc(OP(=O)(O)O)cc3)NC(C)=O)C(=O)N12 | 1800 nM
CC(=O)N[C@@H](Cc1ccc(OP(=O)(O)O)cc1)C(=O)N[C@H]1CCC(=O)N2CCC[C@@H](C(=O)N[C@H]3C[C@H](C(=O)O)c4ccccc43)N2C1=O | 2000 nM
CC[C@H](C)[C@H](NC(=O)[C@H](CCC(=O)O)NC(=O)[C@H](CCC(=O)O)NC(=O)[C@H](Cc1ccc(OP(=O)(O)O)cc1)NC(C)=O)C(=O)N1CCC[C@@H]1C(=O)NC | 1600 nM
CC(=O)N[C@@H](Cc1ccc(OP(=O)(O)O)cc1)C(=O)N[C@H]1CCC(=O)N2CCC[C@@H](C(=O)NC3CC(C(=O)O)c4ccccc43)N2C1=O (stereo in doubt; 34) | 7700 nM
CC(=O)N[C@@H](Cc1ccc(OP(=O)(O)O)cc1)C(=O)N[C@H]1CCC(=O)N2CCC[C@@H](C(=O)NCc3ccc(Cl)cc3)N2C1=O | 400 nM
CC(=O)N[C@@H](Cc1ccc(OP(=O)(O)O)cc1)C(=O)N[C@H]1CCC(=O)N2CCC[C@@H](C(=O)Nc3cccc4ccccc34)N2C1=O | 1100 nM
CC[C@H](C)[C@H](NC(=O)[C@@H]1CCCN1C(=O)[C@@H](NC(=O)[C@H](CCC(=O)O)NC(=O)[C@H](CCC(=O)O)NC(=O)[C@H](Cc1ccc(OP(=O)(O)O)cc1)NC(=O)[C@H](CCC(N)=O)NC(=O)[C@@H]1CCCN1C(=O)[C@@H](N)CCC(=O)O)[C@@H](C)CC)C(=O)N[C@@H](Cc1ccc(O)cc1)C(=O)N[C@@H](CC(C)C)C(=O)O (H-EPQ[pY]EEIPIYL-OH) | 360 nM
CCCNC(=O)[C@@H]1CCCN2C(=O)CC[C@H](NC(=O)[C@H](Cc3ccc(OP(=O)(O)O)cc3)NC(C)=O)C(=O)N12 | 6000 nM
CC[C@H](C)[C@H](NC(=O)[C@@H]1CCCN2C(=O)CC[C@H](NC(=O)[C@H](Cc3ccc(OP(=O)(O)O)cc3)NC(C)=O)C(=O)N12)C(=O)NC | 1600 nM
CC(=O)N[C@@H](Cc1ccc(OP(=O)(O)O)cc1)C(=O)N[C@H]1CCC(=O)N2CCC[C@@H](C(=O)NCC34CC5CC(CC(C5)C3)C4)N2C1=O | 1100 nM
CC(=O)N[C@@H](Cc1ccc(OP(=O)(O)O)cc1)C(=O)N[C@H]1CCC(=O)N2CCC[C@@H](C(=O)N[C@@H]3C[C@H](C(=O)O)c4ccccc43)N2C1=O | 30 nM
CC(=O)N[C@@H](Cc1ccc(OP(=O)(O)O)cc1)C(=O)N[C@H]1CCC(=O)N2CCC[C@@H](C(=O)NCc3cccc4ccccc34)N2C1=O | 1900 nM
CCNC(=O)[C@@H]1CCCN2C(=O)CC[C@H](NC(=O)[C@H](Cc3ccc(OP(=O)(O)O)cc3)NC(C)=O)C(=O)N12 | 8500 nM
